From patent publication US6492137B1, “Response element compositions and assays employing same” (The Salk Institute for Biological Studies, priority 1989, dated 2002)

The substances below were run against T1, TRβ (Homo sapiens, UniProt P10828) (assay: ΔSV-CAT reporter cotransfection assay in CV-1 cells with TRβ expression plasmid, ±T3). Conditions: TRβ expression vector.
T1 sequence (P10828 1-461): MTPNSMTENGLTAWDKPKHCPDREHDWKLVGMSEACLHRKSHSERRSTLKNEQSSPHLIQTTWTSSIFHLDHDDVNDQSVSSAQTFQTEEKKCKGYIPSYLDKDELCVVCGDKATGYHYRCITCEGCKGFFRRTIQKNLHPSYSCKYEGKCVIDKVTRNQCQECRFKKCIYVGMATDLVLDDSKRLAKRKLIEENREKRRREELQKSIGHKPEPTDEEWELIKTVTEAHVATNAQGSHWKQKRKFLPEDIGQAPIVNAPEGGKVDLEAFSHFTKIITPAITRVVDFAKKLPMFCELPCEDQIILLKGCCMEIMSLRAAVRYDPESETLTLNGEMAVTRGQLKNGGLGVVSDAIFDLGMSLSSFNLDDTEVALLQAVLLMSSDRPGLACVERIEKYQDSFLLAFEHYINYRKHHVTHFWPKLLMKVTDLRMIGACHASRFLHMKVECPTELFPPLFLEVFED
Type: cell-based
Set-up: expressed in transfected cells; host or cells: CV-1 (monkey kidney)
From the text: Receptor expression plasmids used in the following cotransfection assays have been described previously (pRShTRβ [see Thompson, et al., Proc. Natl. Acad. Sci. U.S.A. 86: 3494-3498 (1989)]; pRShRARα [see Giguere, et al., Nature 330: 624-629 (1987)]; pRShRARβ and pRshRARγ [see Ishikawa, et al., Mol. Endocrinol, 4: 837-844 (1990)]; and pRShVDR, [Schule, et al., Cell 61: 497-504 (1990)]. A basal reporter plasmid ΔSV-CAT was constructed by replacing the TK promoter in TK-CAT [Damm, et al., Nature 339: 593-597 (1989)] with the SphI-HindIII fragment of the SV40 early promoter. All of the recombinant CAT reporter plasmids used herein harbor a single copy of the indicated oligonucleotides at the unique HindIII site upstream of the SV40 promoter. […] To improve production of receptor proteins in COS cells, a new eukaryotic expression vector pCMX was prepared by modifying the plasmid CDM8 [Seed, B., Nature 329: 840-842 (1987)]. The CDM8 was cut with MluI and StuI in order to release the DNA fragment encoding the CMV/T7 promoter, SV40 small t intron/poly A signal, polyoma virus enhancer/origin, and SV40 enhancer/origin. The resulting fragment was ligated to a larger fragment of PvuII-digested PUC19. An internal deletion was introduced between unique BamHI and BclI sites present in the DCM8 portion. The stuffer sequence flanked by XbaI sites was replaced with a synthetic polylinker coding for 5′-KpnI/Asp718-EcoRV-BamHI -MscI-NheI-3′, followed by a stretch of 5′-[…]-3′ (SEQ ID NO:48) which can function as a universal termination signal for protein translation. The coding sequence of the luciferase [de Wet, et al., Mol. Cell. Biol. 7: 725-737 (1987)] and human TRβ, RARα, and VDR was placed in the polylinker region of the pCMX, generating pCMX-LUC, Pcmx-Htrβ, pCMX-hRARα, and pCMX-hVDR, respectively. The translation start site of the RARα was modified to […] by attaching the synthetic linker encoding a consensus translation start signal [Hollenberg, et al., Cell 55: 899-906 (1988)].
For cotransfection assays, a monkey kidney cell line CV-1 was kept in Dulbecco's modified Eagle's medium (DMEM) supplemented with 10% charcoal-resin double split calf bovine serum. Transfections were performed via calcium-phosphate precipitation method as described by Umesono, et al. in Cell 57: 1139-1146 (1989), with 0.5 μg of a pRS receptor expression plasmid, 1.0 μg of a reporter CAT plasmid, 5 μg of pRAS-βGAL [Umesono, et al., Cell 57: 1139-1146 (1989)] as an internal control, and 8.5 μg of carrier plasmid pUC19. The cells were transfected for 8 hours; after washing the DNA precipitates, the cells were then incubated for an additional 36 hours with or without the ligand (T3, 100 nM; RA, 1 μM; 1,25-(OH)2 vitamin D3, 100 nM). Cell extracts were prepared for βGAL and CAT assays, as described by Umesono, et al., supra. Transfection of F9 teratocarcinoma cells was carried out employing a similar method except the cells were incubated for 12 hours in the presence of the DNA precipitates, and the RA was added at 1 μM for another 24 hours before harvesting the cells. 2, 5, and 4 μg of the reporter, pRAS-βGAL, and pUC19 were used, respectively.
Target hormone response elements described in FIG. 3 were synthesized as double-stranded oligonucleotides with an overhanging tetranucleotide (5′-agct-3′) at both ends. A single copy of these oligonucleotides was cloned at the unique HindIII site present in the basal promoter CAT construct ΔSV-CAT. Capitalized portions in the nucleotide sequences correspond to those found in the natural promoters except TREp and rGH21, which are synthetic. Bold letters indicate the “AGGTCA” motif and “X” denotes a nucleotide substitution from this motif.

Question: For “GDR-3: identical to DR-3 except half-site changed to AGAACA, a GRE half-site (SEQ ID NO:26) (AGCTTCAGAACAAGGAGAACAGAGAGCT; DNA, backbone not given here; double-stranded DNA response element with agct overhangs, cloned into reporter)”, which “T3 responsiveness (in words)” value is on record?
Answer: The value was “completely inactive”.

Question: Which “T3 responsiveness (in words)” value does the source give for “GDR-4: identical to DR-4 except half-site changed to AGAACA, a GRE half-site (SEQ ID NO:28) (AGCTTCAGAACACAGGAGAACAGAGAGCT; DNA, backbone not given here; double-stranded DNA response element with agct overhangs, cloned into reporter)” here?
Answer: Its value is “completely inactive”.

Question: How did the “T3 responsiveness (in words)” value turn out when “TREp: optimized palindromic rat growth hormone TRE (SEQ ID NO:10) (AGCTTCAGGTCATGACCTGAGAGCT; DNA, backbone not given here; double-stranded response element with agct overhangs, cloned into reporter plasmid) [reference compound]” was run?
Answer: Its value is “responsive to T3”.
